Common to all, as to assay type: cell-based
In experiment [1] the test system is synthetic promoter G5TO4 (tetracycline transcription silencer tTS). The note with it: clone #32, 1 μg/ml tetracycline.
Experiment [2] has the same test system.
The test system is the same in experiment [3]. The note with it: 1 μg/ml tetracycline; culture medium two days post-transfection; HeLa-tTS.

The record followed here is patent publication US10787696B2 (priority 2009, dated 2020).

For the compound `CN(C)[C@@H]1C(O)=C(C(N)=O)C(=O)[C@@]2(O)C(O)=C3C(=O)c4c(O)cccc4[C@@](C)(O)[C@H]3C[C@@H]12` [tetracycline], the “reporter gene activation when tetracycline was added to the culture medium” value in experiment [1] is “more than 200 fold”. In experiment [1] (96-well microplate, one day), the “luciferase activity in medium of cells treated with tetracycline vs. not treated” value amounted to 200 fold. The “reporter activation by the addition of tetracycline” value in experiment [2] is reported as “more than 14 fold”. Besides, the “relative light units (RLU) with tetracycline vs. absence of tetracycline” value in experiment [3] is 16 fold.
